Assay results reported in ChEMBL document CHEMBL1201862, “PubChem BioAssay data set” (2004).
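Tested at 5 concentrations; 48 h exposure; 96-well plates; endpoints linearly interpolated, else capped at highest concentration. GI50: concentration for 50% inhibition of growth.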 Activity calls are given as the source filed them. Rule as the data show it: active = GI50 up to about 1.1 µM and inactive = higher.

Key:
Experiment in all cases: growth of human tumour cells (NCI), 48 h
SK-OV-3 = test system: SK-OV-3
Hs-578T = test system: Hs-578T
RPMI-8226 = test system: RPMI-8226
Malme-3M = test system: Malme-3M
OVCAR-3 = test system: OVCAR-3
UO-31 = test system: UO-31
HT-29 = test system: HT-29
HCT-15 = test system: HCT-15
LOX IMVI = test system: LOX IMVI
SK-MEL-5 = test system: SK-MEL-5
OVCAR-8 = test system: OVCAR-8
NCI-H460 = test system: NCI-H460
SR = test system: SR
SNB-75 = test system: SNB-75
ACHN = test system: ACHN
HL-60 = test system: HL-60
OVCAR-4 = test system: OVCAR-4
EKVX = test system: EKVX
SF-268 = test system: SF-268
NCI/ADR-RES = test system: NCI/ADR-RES
TK-10 = test system: TK-10
SK-MEL-2 = test system: SK-MEL-2
UACC-257 = test system: UACC-257
HOP-92 = test system: HOP-92
IGROV-1 = test system: IGROV-1
SF-539 = test system: SF-539
A549 = test system: A549
PC-3 = test system: PC-3
T47D = test system: T47D
SNB-19 = test system: SNB-19
HCC 2998 = test system: HCC 2998
M14 = test system: M14
MCF7 = test system: MCF7
NCI-H23 = test system: NCI-H23
786-0 = test system: 786-0
HOP-62 = test system: HOP-62
CCRF-CEM = test system: CCRF-CEM
SW-620 = test system: SW-620
RXF 393 = test system: RXF 393
SF-295 = test system: SF-295
K562 = test system: K562
CAKI-1 = test system: CAKI-1
A498 = test system: A498
MDA-MB-435 = test system: MDA-MB-435
U-251 = test system: U-251
OVCAR-5 = test system: OVCAR-5
DU-145 = test system: DU-145
MOLT-4 = test system: MOLT-4
NCI-H522 = test system: NCI-H522
HCT-116 = test system: HCT-116
SK-MEL-28 = test system: SK-MEL-28
MDA-N = test system: MDA-N
MDA-MB-231 = test system: MDA-MB-231
COLO 205 = test system: COLO 205
UACC-62 = test system: UACC-62
SN12C = test system: SN12C
KM12 = test system: KM12

## O=C1c2ccccc2CC12Cc1cc3c(cc1C2=O)CCC3 (configuration not stated)
SK-OV-3
  GI50: > 100 µM (inactive)
Hs-578T
  GI50: > 100 µM (inactive)
RPMI-8226
  GI50: 43.6 µM (inactive)
Malme-3M
  GI50: > 100 µM (inactive)
OVCAR-3
  GI50: > 100 µM (inactive)
UO-31
  GI50: > 100 µM (inactive)
HT-29
  GI50: > 100 µM (inactive)
HCT-15
  GI50: > 100 µM
LOX IMVI
  GI50: > 100 µM (inactive)
SK-MEL-5
  GI50: > 100 µM (inactive)
OVCAR-8
  GI50: > 100 µM (inactive)
NCI-H460
  GI50: > 100 µM (inactive)
SR
  GI50: > 100 µM (inactive)
SNB-75
  GI50: > 100 µM (inactive)
ACHN
  GI50: > 100 µM (inactive)
HL-60
  GI50: > 100 µM (inactive)
OVCAR-4
  GI50: > 100 µM (inactive)
EKVX
  GI50: > 100 µM (inactive)
SF-268
  GI50: > 100 µM (inactive)
NCI/ADR-RES
  GI50: > 100 µM (inactive)
TK-10
  GI50: > 100 µM (inactive)
SK-MEL-2
  GI50: > 100 µM (inactive)
UACC-257
  GI50: > 100 µM (inactive)
HOP-92
  GI50: > 100 µM (inactive)
IGROV-1
  GI50: > 100 µM (inactive)
SF-539
  GI50: > 100 µM (inactive)
A549
  GI50: > 100 µM (inactive)
PC-3
  GI50: > 100 µM (inactive)
T47D
  GI50: > 100 µM (inactive)
SNB-19
  GI50: > 100 µM (inactive)
HCC 2998
  GI50: > 100 µM (inactive)
M14
  GI50: > 100 µM (inactive)
MCF7
  GI50: > 100 µM (inactive)
NCI-H23
  GI50: > 100 µM (inactive)
786-0
  GI50: > 100 µM (inactive)
HOP-62
  GI50: > 100 µM (inactive)
CCRF-CEM
  GI50: > 100 µM (inactive)
SW-620
  GI50: > 100 µM (inactive)
RXF 393
  GI50: > 100 µM (inactive)
SF-295
  GI50: > 100 µM (inactive)
K562
  GI50: > 100 µM (inactive)
CAKI-1
  GI50: > 100 µM (inactive)
A498
  GI50: > 100 µM (inactive)
MDA-MB-435
  GI50: > 100 µM (inactive)
U-251
  GI50: > 100 µM (inactive)
OVCAR-5
  GI50: > 100 µM (inactive)
DU-145
  GI50: > 100 µM (inactive)
MOLT-4
  GI50: > 100 µM (inactive)
NCI-H522
  GI50: > 100 µM (inactive)
HCT-116
  GI50: > 100 µM (inactive)
SK-MEL-28
  GI50: > 100 µM (inactive)
MDA-N
  GI50: > 100 µM (inactive)
MDA-MB-231
  GI50: > 100 µM (inactive)

## Cc1c(CCCl)c(N=P(c2ccccc2)(c2ccccc2)c2ccccc2)n2c(nc3ccccc32)c1C#N
SK-OV-3
  GI50: > 10 µM (inactive)
RPMI-8226
  GI50: > 10 µM (inactive)
Malme-3M
  GI50: > 10 µM (inactive)
HT-29
  GI50: 5.79 µM (inactive)
HCT-15
  GI50: > 10 µM
LOX IMVI
  GI50: > 10 µM (inactive)
SK-MEL-5
  GI50: > 10 µM (inactive)
OVCAR-8
  GI50: > 10 µM (inactive)
SR
  GI50: > 10 µM (inactive)
SNB-75
  GI50: > 10 µM (inactive)
EKVX
  GI50: > 10 µM (inactive)
SF-268
  GI50: > 10 µM (inactive)
TK-10
  GI50: > 10 µM (inactive)
UACC-257
  GI50: > 10 µM (inactive)
COLO 205
  GI50: > 10 µM (inactive)
IGROV-1
  GI50: > 10 µM (inactive)
A549
  GI50: > 10 µM (inactive)
PC-3
  GI50: > 10 µM (inactive)
T47D
  GI50: > 10 µM (inactive)
UACC-62
  GI50: > 10 µM (inactive)
HCC 2998
  GI50: > 10 µM (inactive)
M14
  GI50: > 10 µM (inactive)
MCF7
  GI50: > 10 µM (inactive)
NCI-H23
  GI50: > 10 µM (inactive)
786-0
  GI50: > 10 µM (inactive)
HOP-62
  GI50: > 10 µM (inactive)
SN12C
  GI50: > 10 µM (inactive)
CCRF-CEM
  GI50: 4.67 µM (inactive)
SW-620
  GI50: > 10 µM (inactive)
RXF 393
  GI50: > 10 µM (inactive)
SF-295
  GI50: > 10 µM (inactive)
K562
  GI50: > 10 µM (inactive)
CAKI-1
  GI50: > 10 µM (inactive)
DU-145
  GI50: > 10 µM (inactive)
MOLT-4
  GI50: > 10 µM (inactive)
SK-MEL-28
  GI50: > 10 µM (inactive)
MDA-N
  GI50: > 10 µM (inactive)
MDA-MB-231
  GI50: > 10 µM (inactive)
KM12
  GI50: > 10 µM (inactive)
